Assay results: the supplement of paper PMC11451515

Test system: NOMO1
Experiment: cell viability relative to DMSO control; higher = less cytotoxic
Details: 48 h
Outline: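 Library compounds in DMSO were pin-dosed in an 11-point threefold series (47 μM to 0.79 nM) onto leukemia cells in 1536-well plates (5 μl). Plates held 500 cells/well of NOMO1 or SEM or 1000 cells/well of P12-Ichikawa, each adapted for at least four passages in each medium. Luminescence was read with CellTiter-Glo One after 48 h at 37°C. Viability means the per-plate percentage relative to DMSO wells, using cell-free wells as background.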

[1] = HPLM + 10% dialyzed FBS, 0.000781 µM
[2] = HPLM + 10% dialyzed FBS, 0.00234 µM
[3] = HPLM + 10% dialyzed FBS, 0.00702 µM
[4] = HPLM + 10% dialyzed FBS, 0.0211 µM
[5] = HPLM + 10% dialyzed FBS, 0.0632 µM
[6] = HPLM + 10% dialyzed FBS, 0.19 µM
[7] = HPLM + 10% dialyzed FBS, 0.569 µM
[8] = HPLM + 10% dialyzed FBS, 1.71 µM
[9] = HPLM + 10% dialyzed FBS, 5.12 µM
[10] = HPLM + 10% dialyzed FBS, 15.4 µM
[11] = HPLM + 10% dialyzed FBS, 46.1 µM
[12] = RPMI 5 mM glucose + 10% FBS, 0.000781 µM
[13] = RPMI 5 mM glucose + 10% FBS, 0.00234 µM
[14] = RPMI 5 mM glucose + 10% FBS, 0.00702 µM
[15] = RPMI 5 mM glucose + 10% FBS, 0.0211 µM
[16] = RPMI 5 mM glucose + 10% FBS, 0.0632 µM
[17] = RPMI 5 mM glucose + 10% FBS, 0.19 µM
[18] = RPMI 5 mM glucose + 10% FBS, 0.569 µM
[19] = RPMI 5 mM glucose + 10% FBS, 1.71 µM
[20] = RPMI 5 mM glucose + 10% FBS, 5.12 µM
[21] = RPMI 5 mM glucose + 10% FBS, 15.4 µM
[22] = RPMI 5 mM glucose + 10% FBS, 46.1 µM
[23] = RPMI 5 mM glucose + 10% dialyzed FBS, 0.000781 µM
[24] = RPMI 5 mM glucose + 10% dialyzed FBS, 0.00234 µM
[25] = RPMI 5 mM glucose + 10% dialyzed FBS, 0.00702 µM
[26] = RPMI 5 mM glucose + 10% dialyzed FBS, 0.0211 µM
[27] = RPMI 5 mM glucose + 10% dialyzed FBS, 0.0632 µM
[28] = RPMI 5 mM glucose + 10% dialyzed FBS, 0.19 µM
[29] = RPMI 5 mM glucose + 10% dialyzed FBS, 0.569 µM
[30] = RPMI 5 mM glucose + 10% dialyzed FBS, 1.71 µM
[31] = RPMI 5 mM glucose + 10% dialyzed FBS, 5.12 µM
[32] = RPMI 5 mM glucose + 10% dialyzed FBS, 15.4 µM
[33] = RPMI 5 mM glucose + 10% dialyzed FBS, 46.1 µM

SMILES: CO[C@H]1C[C@@H]2CC[C@@H](C)[C@@](O)(O2)C(=O)C(=O)N2CCCC[C@H]2C(=O)O[C@H]([C@H](C)C[C@@H]2CC[C@@H](OCCO)[C@H](OC)C2)CC(=O)[C@H](C)/C=C(/C)[C@@H](O)[C@@H](OC)C(=O)[C@H](C)C[C@H](C)\C=C/C=C\C=C/1C
- cell viability [1]: 91.8%
- cell viability [2]: 97.5%
- cell viability [3]: 95.7%
- cell viability [4]: 92.9%
- cell viability [5]: 81.7%
- cell viability [6]: 95.4%
- cell viability [7]: 80.7%
- cell viability [8]: 68.8%
- cell viability [9]: 73.8%
- cell viability [10]: 64.1%
- cell viability [11]: 57.4%
- cell viability [12]: 86.5%
- cell viability [13]: 94.6%
- cell viability [14]: 97.8%
- cell viability [15]: 99.4%
- cell viability [16]: 98.4%
- cell viability [17]: 94.2%
- cell viability [18]: 85.4%
- cell viability [19]: 88%
- cell viability [20]: 84.8%
- cell viability [21]: 61.3%
- cell viability [22]: 70.8%
- cell viability [23]: 85%
- cell viability [24]: 91.2%
- cell viability [25]: 84.5%
- cell viability [26]: 76.7%
- cell viability [27]: 85%
- cell viability [28]: 78.1%
- cell viability [29]: 78.7%
- cell viability [30]: 73.1%
- cell viability [31]: 76.3%
- cell viability [32]: 58.9%
- cell viability [33]: 61.5%

SMILES: OC(COC1=C2C(=O)\C=C(/OC2=CC=C1)C([O-])=O)COC3=C4C(=O)\C=C(/OC4=CC=C3)C([O-])=O
- cell viability [1]: 95.5%
- cell viability [2]: 86.8%
- cell viability [3]: 93.7%
- cell viability [4]: 94.2%
- cell viability [5]: 94.8%
- cell viability [6]: 80.8%
- cell viability [7]: 96.3%
- cell viability [8]: 86.1%
- cell viability [9]: 86.3%
- cell viability [10]: 94.5%
- cell viability [11]: 93%
- cell viability [12]: 72.6%
- cell viability [13]: 74.5%
- cell viability [14]: 74.7%
- cell viability [15]: 76.4%
- cell viability [16]: 80.4%
- cell viability [17]: 74.5%
- cell viability [18]: 74.8%
- cell viability [19]: 83.3%
- cell viability [20]: 71%
- cell viability [21]: 80.3%
- cell viability [22]: 84.8%
- cell viability [23]: 75.4%
- cell viability [24]: 82%
- cell viability [25]: 73.3%
- cell viability [26]: 76.4%
- cell viability [27]: 86%
- cell viability [28]: 72.7%
- cell viability [29]: 89.1%
- cell viability [30]: 88.6%
- cell viability [31]: 87.9%
- cell viability [32]: 86%
- cell viability [33]: 90.4%

SMILES: CC(C)(C)c1cc(C(=O)O)c(NC(=O)Nc2ccc3[nH]ncc3c2)s1
- cell viability [1]: 98.5%
- cell viability [2]: 106%
- cell viability [3]: 101%
- cell viability [4]: 90.7%
- cell viability [5]: 91.1%
- cell viability [6]: 86.6%
- cell viability [7]: 90.5%
- cell viability [8]: 93.9%
- cell viability [9]: 98.8%
- cell viability [10]: 77.2%
- cell viability [11]: 74.3%
- cell viability [12]: 85.9%
- cell viability [13]: 93.1%
- cell viability [14]: 86.6%
- cell viability [15]: 90.2%
- cell viability [16]: 89.9%
- cell viability [17]: 92.3%
- cell viability [18]: 91.5%
- cell viability [19]: 83.9%
- cell viability [20]: 91.2%
- cell viability [21]: 77.3%
- cell viability [22]: 78%
- cell viability [23]: 87.9%
- cell viability [24]: 92.5%
- cell viability [25]: 84%
- cell viability [26]: 89.5%
- cell viability [27]: 90.9%
- cell viability [28]: 83.1%
- cell viability [29]: 83%
- cell viability [30]: 94.9%
- cell viability [31]: 102%
- cell viability [32]: 82.8%
- cell viability [33]: 81.6%

SMILES: CC(NCc1ccc2c(c1)[nH]/c(=N\C(=O)c1ccc(-c3cn[nH]c3)s1)n2CC(C)(C)O)C(C)(C)C (configuration not stated)
- cell viability [1]: 110%
- cell viability [2]: 109%
- cell viability [3]: 113%
- cell viability [4]: 112%
- cell viability [5]: 106%
- cell viability [6]: 103%
- cell viability [7]: 74.4%
- cell viability [8]: 54.1%
- cell viability [9]: 9.83%
- cell viability [10]: 5.43%
- cell viability [11]: 4.17%
- cell viability [12]: 110%
- cell viability [13]: 104%
- cell viability [14]: 109%
- cell viability [15]: 98.7%
- cell viability [16]: 102%
- cell viability [17]: 103%
- cell viability [18]: 98.7%
- cell viability [19]: 87.2%
- cell viability [20]: 10.8%
- cell viability [21]: 5.4%
- cell viability [22]: 3.08%
- cell viability [23]: 116%
- cell viability [24]: 100%
- cell viability [25]: 110%
- cell viability [26]: 99.5%
- cell viability [27]: 101%
- cell viability [28]: 101%
- cell viability [29]: 92.9%
- cell viability [30]: 69.7%
- cell viability [31]: 8.51%
- cell viability [32]: 4.24%
- cell viability [33]: 2.97%

SMILES: COc1cc([C@@H]2c3cc4c(cc3[C@@H](O[C@@H]3O[C@@H]5CO[C@@H](c6cccs6)O[C@H]5[C@H](O)[C@H]3O)[C@H]3COC(=O)[C@H]23)OCO4)cc(OC)c1O
- cell viability [1]: 92.7%
- cell viability [2]: 97.4%
- cell viability [3]: 115%
- cell viability [4]: 111%
- cell viability [5]: 103%
- cell viability [6]: 89.6%
- cell viability [7]: 97.7%
- cell viability [8]: 34.3%
- cell viability [9]: 116%
- cell viability [10]: 31.1%
- cell viability [11]: 13.8%
- cell viability [12]: 85.3%
- cell viability [13]: 85.6%
- cell viability [14]: 89.7%
- cell viability [15]: 97.2%
- cell viability [16]: 81.7%
- cell viability [17]: 99.3%
- cell viability [18]: 91.2%
- cell viability [19]: 22.9%
- cell viability [20]: 101%
- cell viability [21]: 22.4%
- cell viability [22]: 12.7%
- cell viability [23]: 89.5%
- cell viability [24]: 82.9%
- cell viability [25]: 91%
- cell viability [26]: 89.6%
- cell viability [27]: 93.2%
- cell viability [28]: 90.6%
- cell viability [29]: 101%
- cell viability [30]: 32.4%
- cell viability [31]: 99.3%
- cell viability [32]: 25.2%
- cell viability [33]: 16.7%

SMILES: COc1cccc2c1C(=O)c1c(O)c3c(c(O)c1C2=O)C[C@@](O)(C(C)=O)C[C@@H]3O[C@H]1C[C@H](N)[C@H](O)[C@H](C)O1
- cell viability [1]: 98.6%
- cell viability [2]: 107%
- cell viability [3]: 108%
- cell viability [4]: 114%
- cell viability [5]: 111%
- cell viability [6]: 81.5%
- cell viability [7]: 12.4%
- cell viability [8]: 7.35%
- cell viability [9]: 5.97%
- cell viability [10]: 5.19%
- cell viability [11]: 4.98%
- cell viability [12]: 99%
- cell viability [13]: 104%
- cell viability [14]: 106%
- cell viability [15]: 99.2%
- cell viability [16]: 108%
- cell viability [17]: 78.6%
- cell viability [18]: 9.07%
- cell viability [19]: 4.79%
- cell viability [20]: 4.48%
- cell viability [21]: 5.23%
- cell viability [22]: 3.6%
- cell viability [23]: 91.6%
- cell viability [24]: 113%
- cell viability [25]: 107%
- cell viability [26]: 115%
- cell viability [27]: 108%
- cell viability [28]: 73.4%
- cell viability [29]: 9.73%
- cell viability [30]: 6.25%
- cell viability [31]: 4.58%
- cell viability [32]: 4.86%
- cell viability [33]: 4.92%

SMILES: COc1ccnc(C[S+]([O-])c2nc3cc(OC(F)F)ccc3[nH]2)c1OC (configuration not stated)
- cell viability [1]: 111%
- cell viability [2]: 124%
- cell viability [3]: 119%
- cell viability [4]: 131%
- cell viability [5]: 124%
- cell viability [6]: 134%
- cell viability [7]: 126%
- cell viability [8]: 115%
- cell viability [9]: 134%
- cell viability [10]: 128%
- cell viability [11]: 126%

SMILES: CN(C)CCN(Cc1ccc(Cl)cc1)c1ccccn1.Cl
- cell viability [1]: 84.4%
- cell viability [2]: 90.2%
- cell viability [3]: 89.4%
- cell viability [4]: 95.3%
- cell viability [5]: 91%
- cell viability [6]: 78.5%
- cell viability [7]: 98.2%
- cell viability [8]: 63.8%
- cell viability [9]: 93.9%
- cell viability [10]: 91.1%
- cell viability [11]: 90.3%
- cell viability [12]: 85.2%
- cell viability [13]: 90%
- cell viability [14]: 92.7%
- cell viability [15]: 92.6%
- cell viability [16]: 84.1%
- cell viability [17]: 96.8%
- cell viability [18]: 99.2%
- cell viability [19]: 85.9%
- cell viability [20]: 92%
- cell viability [21]: 80%
- cell viability [22]: 90.5%
- cell viability [23]: 83.5%
- cell viability [24]: 95.1%
- cell viability [25]: 91.7%
- cell viability [26]: 96.1%
- cell viability [27]: 94.1%
- cell viability [28]: 89.3%
- cell viability [29]: 103%
- cell viability [30]: 50.5%
- cell viability [31]: 87.3%
- cell viability [32]: 89.8%
- cell viability [33]: 79.6%
